Tests used:
HCV = details: cited from earlier work

NC(=O)c1ncn([C@@H]2O[C@H](CO)[C@@H](O)[C@H]2O)n1 [Ribavirin, ribavirin]
virologic response (hepatitis C; Example A: lower doses of ribavirin (less than 400 mg/day or less than 6 mg/kg/day), slow-release, with 3 million IU Intron A once weekly): sustained virologic response
therapeutic response versus conventional or systemic doses (hepatitis C; Example B: higher doses of ribavirin (600 mg/day), slow-release, with 3 million IU Intron A once weekly): more complete or faster therapeutic response
side effects versus conventional or systemic doses (hepatitis C; human, in vivo): lower side effects
effect on HCV viral load or hepatic histology (HCV; given as monotherapy, orally): no effect

interferon alfa 2b
response rate (measured by major fall in HCV levels) (HCV; administered parenterally for up to 6 months): ~25%

Reference: patent US20070202078A1, “Method Of Treating Viral Infections” (priority 2003, published 2007)
